Publication PMC7870638, “Toxicity of anticancer drugs in human placental tissue explants and trophoblast cell lines” (Archives of Toxicology, 2020)
Where two headings read alike, the source gives them in different places.

How the values were obtained:
[1] = system: placental villous explants; assay: MTT assay in placental explants (tissue viability); format: cell-based, human; conditions: 72 h exposure, 1, 10 or 100 µM
Experimental: (§1) Term placentas, obtained from consenting women following uncomplicated pregnancies and delivered vaginally or by caesarean section, were used for all experiments. Approval of the Regional Committee on Research involving Human Subjects was obtained (File 2014-1397). Within 60 min after delivery, 1 cm^3 villous tissue samples were excised at random areas midway between the umbilical cord and distal edge of the placenta. To remove maternal blood, samples were carefully rinsed in sterile Dulbecco’s phosphate-buffered saline supplemented with calcium chloride and magnesium chloride (Sigma-Aldrich, St. Louis, MO, USA) which was kept at 37 °C. The villous tissue was cut into small pieces weighing approximately 5 mg, after which 4–6 pieces of tissue were cultured together in individual wells of a 6-well plate. The explants were cultured in 1.5 ml of RPMI-1640 culture medium (Gibco, USA) with 15% heat-inactivated fetal bovine serum, 1% penicillin streptomycin, 1% gentamicin, and 1% amphotericin B (Life Technologies, USA). Placental explant cultures were kept for 7 days at 37 °C in a humidified gas mixture of 5% CO2 and 95% air. The culture medium was renewed every 24 h.
(§2) Treatment with TKIs or cytostatic drugs was started at day four of culture to allow for the syncytiotrophoblasts to regenerate (Siman et al. [2001]). Explants were then incubated for 72 h with 1, 10 or 100 µM of all TKIs or cytostatic drugs mentioned above. […] Culture medium was replaced every 24 h with new medium containing the original concentration of the drug. Supernatant was collected each day and stored at − 20 °C for hormone quantification.
(§3) To evaluate tissue and cell viability, after 72 h of drug exposure, tissue explants were incubated for 4 h at 37 °C with 1 mM 3-(4,5-dimethylthiazol-2-yl)-[…] (MTT) in RPMI. After incubation, the medium was removed, the tissue in each well was weighed, and the explants were subsequently placed in 500 µL DMSO for 10 min to dissolve the formazan formed. After 10 min, the DMSO was transferred to a 96-well plate and absorbance was measured at 540 nm using a Biorad Multiwell Plate reader.
(§4) Construction of graphs and data analysis were performed using Graphpad Prism version 8.4.2. MTT conversion and progesterone and estrone release in placental explants were normalized to tissue wet weight. To compare the effects on tissue viability and cell viability, the data were normalized to control conditions and mean differences were tested using an unpaired t test, a one-way ANOVA, or a two-way repeated measures ANOVA. The change in progesterone release rate as compared to the baseline (at 0 h) was calculated for each well separately, after which data were normalized to control conditions. One-way ANOVA was used to assess effects at the 72 h time point only. The Bonferroni post hoc test was applied to compare treatment conditions with controls. Data are described as mean ± SD in Figs. 2 and 3 and as mean ± SEM in all other figures where comparisons of means between groups were made. The mean and SD or SEM were calculated from all individual results (three experiments performed in duplicate or triplicate wells, n = 6 or n = 9).

[2] = system: progesterone and estrone release in placental explants; assay: Steroid (progesterone, estrone) release in placental explants, LC-MS/MS of culture medium; format: cell-based, human; conditions: placental explants; for progesterone release relative to control (in words): 100 µM, 72 h exposure; for reduction in progesterone release (in words): 10 and 100 µM gefitinib, 100 μM imatinib, effects over time (Fig. S2A)
Experimental: as §1
Treatment with TKIs or cytostatic drugs was started at day four of culture to allow for the syncytiotrophoblasts to regenerate (Siman et al. [2001]). Explants were then incubated for 72 h with 1, 10 or 100 µM of all TKIs or cytostatic drugs mentioned above. […] For cisplatin and carboplatin, culture medium was used as a solvent. Culture medium was replaced every 24 h with new medium containing the original concentration of the drug. Supernatant was collected each day and stored at − 20 °C for hormone quantification.
(§5) Progesterone and estrone concentrations in culture medium were determined by LC–MS/MS analysis using an Acquity UPLC (Waters, Milford, MA, USA) equipped with a C18 UPLC column (Acquity UPLC BEH C18, 2.1 × 50 mm, Milford, MA, USA, Waters) coupled to a Xevo TQ-S (Waters) triple quadrupole mass spectrometer. Progesterone-D9 was used as internal standard and calibration curves were made in the matrix. To precipitate proteins, methanol containing the internal standard was added to culture medium samples in a ratio 3:1 (MeOH:medium). Following subsequent centrifugation (13,000g for 3 min), 1 μl of the clear supernatant was injected into the LC–MS to quantify progesterone and estrone. Solvent A consisted of 0.2 mM NH4F in water and solvent B consisted of 0.2 mM NH4F in Acetonitrile:Methanol in a ratio of 75:25%. Separation was performed at a flow rate of 350 µl/min under the following gradient conditions: 0 min 60% eluent A, 3.0 min 0% eluent A, 4 min 0% eluent A, 5 min 60% eluent A. The effluent from the UPLC was passed directly into the electrospray ion source. Positive electrospray ionization was achieved using nitrogen as a desolation gas with ionization voltage at 600 V. The source temperature was set at 500 °C and argon was used as collision gas. The following SRM transitions were used: m/z 315.10 (parent ion) to m/z 69.9 and m/z 108.9 (both product ions) for progesterone, m/z 269.0 (parent ion) to m/z 144.9 and 158.9 (product ions) for estrone, and m/z 324.2 (parent ion) to m/z 99.9 and m/z 112.9 (product ions) for the internal standard d9-progesterone. We also attempted to quantify estradiol and estriol levels in the culture medium of both explants and cells, but these were below the detection limit.
Construction of graphs and data analysis were performed using Graphpad Prism version 8.4.2. MTT conversion and progesterone and estrone release in placental explants were normalized to tissue wet weight. To compare the effects on tissue viability and cell viability, the data were normalized to control conditions and mean differences were tested using an unpaired t test, a one-way ANOVA, or a two-way repeated measures ANOVA. […]

[3] = system: progesterone release in syncytialised BeWo cells; assay: Steroidogenesis (progesterone release) in syncytialised BeWo cells; format: cell-based, human; conditions: 48 h; for progesterone release (in words): crizotinib 1 μM, paclitaxel 3 nM, cisplatin 100 μM, carboplatin 100 μM
Experimental: (§6) Two human choriocarcinoma-derived placental cell lines were used: JEG3 and BeWo (ATCC catalog numbers HTB-36 and CCL-98, respectively). JEG3 cells were cultured in DMEM and Bewo cells in Ham’s F-12 K medium, supplemented with 10% fetal calf serum and 1% penicillin and streptomycin under a humidified 5% CO2/95% air atmosphere at 37 °C. Cells were passaged (JEG3: 1:10 twice a week; BeWo: 1:3 once a week) after trypsinization with 0.05% Trypsin–EDTA when cells reached approximately 80% confluency. For BeWo cells, the medium was renewed 3 times a week. To create syncytialised BeWo cells, regular BeWo cells were treated with 50 μM forskolin (Sigma-Aldrich, St. Louis, MO, USA) in 0.1% DMSO, to initiate syncytialisation. As forskolin increases the intracellular cAMP levels, it activates protein kinase A after which syncytialisation and fusion of trophoblasts occurs (Orendi et al. [2010]).
For doxorubicin, only two concentrations were tested. Conditioned medium, containing the secreted hormones, was collected after 48 h exposure to the TKIs and cytostatic drugs and stored at − 80 °C until analysis. To eliminate the influence of the varying cell densities between the wells, total protein content in each well was measured. Cells were washed twice with Hank’s buffered Salt Solution (HBSS) and lysed with 50 μL 1 M sodium hydroxide (NaOH). Subsequently, 10 μL of the lysate was mixed with 190 μL of 5 times diluted dye reagent (Biorad protein assay). The absorbance was measured at 595 nm using a Biorad Multiwell Plate reader. The quantities of protein in the samples were determined via a calibration curve of bovine serum albumin.
as §5

syncytialised BeWo cells = format: cell-based, human
Experimental: The cells were seeded in 96-well culture plates at a cell density of 1 × 10^4 cells/well and cultured for 24 h at 37 °C in a humidified atmosphere with 5% CO2 to allow for attachment. Subsequently, the cells were exposed to the TKIs and cytostatic drugs in concentrations ranging from 100 pM to 100 µM (triplicate). […] This is a minimum percentage DMSO, but required as cells required co-incubation with forskolin to syncytialise. Crizotinib 100 μM was used as positive control. […] The absorbance of formazan was measured at 540 nm by a Biorad Multiwell Plate reader.

[4] = ref Gaver et al. [1988]; cited from earlier work
[5] = system: JEG-3, BeWo, and syncytialised BeWo cells; assay: MTT assay, cell viability in all three trophoblast cell types; format: cell-based, human; conditions: JEG-3 or BeWo cells, 50 μM, 48 h incubation
Experimental: as §6
The cells were seeded in 96-well culture plates at a cell density of 1 × 10^4 cells/well and cultured for 24 h at 37 °C in a humidified atmosphere with 5% CO2 to allow for attachment. Subsequently, the cells were exposed to the TKIs and cytostatic drugs in concentrations ranging from 100 pM to 100 µM (triplicate). […] This is a minimum percentage DMSO, but required as cells required co-incubation with forskolin to syncytialise. Crizotinib 100 μM was used as positive control. After attachment, cells were incubated with the compounds for 48 h, after which the medium was removed and the cells were exposed to […] diluted in medium. After 3 h of incubation with MTT, the formazan crystals formed were solubilized in 50 μL DMSO. The absorbance of formazan was measured at 540 nm by a Biorad Multiwell Plate reader.

[6] = system: progesterone release in BeWo cells; assay: Progesterone release in BeWo cells in control conditions (forskolin-induced syncytialisation); format: cell-based; conditions: Homo sapiens, 48 h, read-out: progesterone production, % of control
Experimental: Two human choriocarcinoma-derived placental cell lines were used: JEG3 and BeWo (ATCC catalog numbers HTB-36 and CCL-98, respectively). JEG3 cells were cultured in DMEM and Bewo cells in Ham’s F-12 K medium, supplemented with 10% fetal calf serum and 1% penicillin and streptomycin under a humidified 5% CO2/95% air atmosphere at 37 °C. Cells were passaged (JEG3: 1:10 twice a week; BeWo: 1:3 once a week) after trypsinization with 0.05% Trypsin–EDTA when cells reached approximately 80% confluency. For BeWo cells, the medium was renewed 3 times a week. […]
For doxorubicin, only two concentrations were tested. […] To eliminate the influence of the varying cell densities between the wells, total protein content in each well was measured. […] The absorbance was measured at 595 nm using a Biorad Multiwell Plate reader. The quantities of protein in the samples were determined via a calibration curve of bovine serum albumin.
Progesterone and estrone concentrations in culture medium were determined by LC–MS/MS analysis using an Acquity UPLC (Waters, Milford, MA, USA) equipped with a C18 UPLC column (Acquity UPLC BEH C18, 2.1 × 50 mm, Milford, MA, USA, Waters) coupled to a Xevo TQ-S (Waters) triple quadrupole mass spectrometer. […] Following subsequent centrifugation (13,000g for 3 min), 1 μl of the clear supernatant was injected into the LC–MS to quantify progesterone and estrone. […]

[7] = MTT assay in placental explants (tissue viability); format: cell-based, human; conditions: female, human, term placental villous tissue explants, 100 µM, 72 h exposure, mean ± SEM, read-out: tissue viability, % of control
Experimental: as §1, §2, §3, §4

[8] = 50 µM, 24 h, 48 h and 72 h exposure starting at day 4

C[C@@H](Oc1cc(-c2cnn(C3CCNCC3)c2)cnc1N)c1c(Cl)ccc(F)c1Cl [crizotinib, Crizotinib]
effect on tissue viability (in words) [1]: fully inhibited tissue viability
progesterone release relative to control (in words) [2]: statistically significant reduction in progesterone release
progesterone release (in words) ([3]; not statistically significant): slight induction of progesterone release

N.N.[Cl][Pt][Cl] [cisplatin]
progesterone release (in words) ([3]; not statistically significant): slight induction of progesterone release

CCN(CC)CCNC(=O)c1c(C)[nH]c(/C=C2\C(=O)Nc3ccc(F)cc32)c1C [sunitinib, sunitinib malate]
effect on tissue viability (in words) [1]: fully inhibited tissue viability
progesterone release relative to control (in words) [2]: statistically significant reduction in progesterone release
cytotoxicity in syncytialised BeWo cells compared to undifferentiated BeWo and JEG3 cells (in words) (syncytialised BeWo cells): inhibited cell viability at multiple concentrations to a lesser extent in syncytialised BeWo cells
activity at 1 µM ([3]; Homo sapiens, 1 µM, P < 0.05, read-out: progesterone release, % of control): 76 ± 6%
activity at 3 µM ([3]; Homo sapiens, 3 µM, P < 0.001, read-out: progesterone release, % of control): 50 ± 4%

Cc1ccc(NC(=O)c2ccc(CN3CCN(C)CC3)cc2)cc1Nc1nccc(-c2cccnc2)n1 [imatinib, Imatinib]
reduction in progesterone release (in words) [2]: only statistically significant if effects over time were analyzed
activity at 10 µM ([3]; Homo sapiens, 10 µM, not statistically significant, read-out: progesterone release, % of control): 76 ± 9%

N.N.O=C([O-])C1(C(=O)[O-])CCC1.[Pt+2] [carboplatin]
progesterone release (in words) ([3]; not statistically significant): slight induction of progesterone release
plasma concentration (may be as high as) [4]: ≤ 100 µM

C=C[C@@]1(C)CC(=O)[C@]2(O)[C@@]3(C)[C@@H](O)CCC(C)(C)[C@@H]3[C@H](O)[C@H](OC(C)=O)[C@@]2(C)O1 [forskolin]
estrone release (in words) [2, 8]: significant induction in estrone release
progesterone release (in words) [2, 8]: not progesterone release
effect on cell viability (in words) [5]: did not alter cell viability
activity at 50 µM ([6]; Forskolin 50 μM in 0.1% DMSO): 370 ± 50%
activity at 50 µM ([6]; Forskolin 50 μM in 0.5% DMSO): 215 ± 12%

COc1cc2ncnc(Nc3ccc(F)c(Cl)c3)c2cc1OCCCN1CCOCC1 [gefitinib]
viability at 72 h, 100 µM [7]: 24 ± 4%
reduction in progesterone release (in words) [2]: only statistically significant if effects over time were analyzed
